Results from paper PMC10081362 (Research Square, 2023).

Assays:
OXTR [1] = molecular target: T1, OXTR (Homo sapiens, UniProt P30559); assay: Radioligand competitive binding assay (NIMH PDSP)
T1 construct: host or cells: CHO-K1, stably transfected
T1 sequence (P30559 1-389): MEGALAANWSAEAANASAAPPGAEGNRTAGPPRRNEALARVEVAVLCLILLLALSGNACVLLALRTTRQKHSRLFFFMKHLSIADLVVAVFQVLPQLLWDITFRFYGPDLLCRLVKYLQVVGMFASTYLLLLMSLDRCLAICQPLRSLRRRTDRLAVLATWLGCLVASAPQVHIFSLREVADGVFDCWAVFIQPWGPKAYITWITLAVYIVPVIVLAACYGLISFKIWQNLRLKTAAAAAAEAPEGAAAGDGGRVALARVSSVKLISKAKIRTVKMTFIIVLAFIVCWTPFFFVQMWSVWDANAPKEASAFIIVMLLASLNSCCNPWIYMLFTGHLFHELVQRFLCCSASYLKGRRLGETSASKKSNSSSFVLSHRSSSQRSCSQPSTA
Procedure: Radioligand binding assays were carried out by the (NIMH) Psychoactive Drug Screening Program[61]. The detailed experimental protocols for the radioligand assay are available on the NIMH PDSP website at http://pdsp.med.unc.edu/UNC-CH%20Protocol%20Book.pdf. […] Binding data were analyzed and plotted using Prism 8 (GraphPad, San Diego, CA).

[2] = tested on: OXTR+ neurons in the auditory cortex; assay type: cell-based, mouse
Procedure: In vitro recordings were performed in acute slices of the auditory cortex prepared from male and female 2–5 month old OXTRcre∷Ai9 mice. Mice were deeply anesthetized with 5% isoflurane and perfused transcardially with ice-cold dissection buffer containing (in mM): 87 NaCl, 75 sucrose, 2.5 KCl, 1.25 NaH2PO4, 0.5 CaCl2, 7 MgCl2, 25 NaHCO3, 1.3 ascorbic acid, and 10 D-glucose, bubbled with 95%/5% O2/CO2 (pH 7.4). Following perfusion and decapitation, brains were removed and placed in the cold buffer solution, and slices (250–300 μm thick) were prepared with a vibratome (Leica P-1000). Slices were placed in warm artificial cerebrospinal fluid (ACSF, in mM: 124 NaCl, 2.5 KCl, 1.5 MgSO4, 1.25 NaH2PO4, 2.5 CaCl2, and 26 NaHCO3) (33–35 °C) for <30 minutes, then cooled to room temperature (22–24 °C) for at least 30 minutes before use. Slices were transferred to the recording chamber and superfused (2.5–3 ml min^−1) with oxygenated ACSF at 33 °C. Whole-cell current-clamp recordings were made from layer 2/3 pyramidal cells with a Multiclamp 200B or 700B amplifier (Molecular Devices, San Diego). Cortical regions and layers were identified using IR video microscopy (Olympus, Japan), and OXTR-positive neurons were identified based on expression of tdTomato, visualized with an Olympus 40 × water- immersion objective with TRITC filter. […]

OXTR [3] = molecular target: T1, OXTR; assay: Calcium flux fluorescence assay (FLUO-8) in CHO-K1 cells stably expressing OXTR; assay type: cell-based
Procedure: Stably transfected CHO-K1 cell lines overexpressing OXTR or V1a were obtained from Dr. Bryan Roth via the National Institute of Mental Health (NIMH) Psychoactive Drug Screening Program. The cells were cultured and maintained in Hams F12 medium (Gibco, Waltham, MA) supplemented with 400 μg/ml G418 (Gibco, Waltham, MA), 10% heat-inactivated FBS (Gibco, Waltham, MA), 15 mM HEPES (Gibco, Waltham, MA), 100 units ml^−1 of penicillin, 100 μg ml^−1 of streptomycin. The cells were grown in an atmosphere of 37°C and 8% CO2 and were passaged following trypsinization with Trypsin-LE (Gibco, Waltham, MA). CHO-K1 cells overexpressing OXTR were seeded overnight at 50,000 cells/100 μL/well in a black wall/clear bottom 96-well plate pretreated with poly-lysine (Gibco, Waltham, MA). […] The calcium flux assay was carried out on a FlexStation 3 Microplate Reader (Molecular Devices, San Jose, CA).

[4] = tested on: mammary tissue from lactating GCaMP6f∷K5CreERT2 mice; assay: Ex vivo three-dimensional time-lapse imaging of lactating mammary tissue; assay type: cell-based, mouse; details: 85 nM oxytocin in bath
Procedure: Mammary glands were harvested from lactating GCaMP6f;K5CreERT2 mice diced into 3- to 4- mm^3 pieces and loaded with CellTracker Red (1.5 μM, ThermoFisher C34552, ThermoFisher, Waltham, MA) for at least 30 minutes in DMEM/F12 containing 10% FCS. Under these conditions, CellTracker preferentially labels luminal cells. […] Samples were imaged on a Leica TCS SP8 inverted microscope (Leica, Germany) with 20× 0.75NA HC PL APO CS2 objective. For uncaging, a region of interest (ROI) was targeted with a 405 nm laser at 100% laser power for 3s each trial. […] Protocol for image processing and analysis was previously reported in (Stevenson et al., 2020)[48].

[5] = UV-Vis absorption spectra upon 365 nm irradiation; assay type: physicochemical; details: 365 nm LED, 3 mW; 20 μM, 1% DMSO/PBS; absorption spectrum unchanged
Procedure: All measurements were performed in the dark or under red light. Samples were stored at −20 °C. UV-Vis spectroscopy was performed using a Cary 60 UV-Vis Spectrophotometer equipped with a PCB 1500 High-Performance Peltier thermostat (Agilent Technologies, Santa Clara, CA). Samples were measured using ultra-micro cuvettes with a 10 mm light path (BrandTech, Essex, CT). Irradiation was performed using an Optoscan Monochromator equipped with an Optosource High-Intensity Arc Lamp (Cairn Research, Kent, UK) set to 15 nm full width at half maximum and installed with a 75 W UXL-S50A xenon arc lamp (USHIO, Tokyo, JP). The light source was set to 365 nm, and the power output was measured at the sample position using a PM100D compact power and energy meter console and S120VC Si photodiode sensor (Thorlabs, Newton, NJ). A constant 3 mW power output at 365 nm was maintained throughout the experiments. The monochromator was controlled using a custom MATLAB program, and data were analyzed and plotted using Prism 8 (GraphPad, San Diego, CA).
For measuring the UV-visible absorption spectra, we prepared a […] DMSO stock solution of each respective compound, diluted to 20 μM (1% DMSO in PBS). A sample (1 mL) of the solution (20 μM) was transferred to a cuvette and measured by under ambient conditions (24 °C). […]

Structure (SMILES) | IC50 (OXTR [1]) [nM] | toxic effects on neurons in slices [2] | activation of OXTR+ cells in presence of OXTR antagonist OTA (OXTR [3]; 1 μM agonist with 10 μM OTA, after photolysis with 365 nm LED, Fig. 2e) | fluorescence (calcium flux) (OXTR [3]; oxytocin 1 μM, Fig. 2d, normalized to maximal response produced by oxytocin, mean ± SEM, n=5 wells) | peak depolarization of OXTR+ neurons ([2]; 1 μM oxytocin wash-on, or cOT1 wash-in and 365 nm light pulsed at 20 Hz, Fig. 4k) | calcium and contraction response to whole-tissue wash on [4] | duration of stability towards 365 nm irradiation [5]
CC[C@H](C)[C@@H]1NC(=O)[C@H](Cc2ccc(OCc3ccccc3[N+](=O)[O-])cc2)NC(=O)[C@@H](N)CSSC[C@@H](C(=O)N2CCC[C@H]2C(=O)N[C@@H](CC(C)C)C(=O)NCC(N)=O)NC(=O)[C@H](CC(N)=O)NC(=O)[C@H](CCC(N)=O)NC1=O [cOT1] | 2010 | without apparent toxic effects | – | – | – | – | –
CC[C@H](C)[C@@H]1NC(=O)[C@H](Cc2ccc(O)cc2)NC(=O)[C@@H](N)CSSC[C@@H](C(=O)N2CCC[C@H]2C(=O)N[C@@H](CC(C)C)C(=O)NCC(N)=O)NC(=O)[C@H](CC(N)=O)NC(=O)[C@H](CCC(N)=O)NC1=O [oxytocin] | – | – | failed to activate | 142.4±1.8 | significant membrane depolarization | increase in intracellular calcium, followed by cell and alveolar contraction across all cells | at least 30 minutes
